Test results as given in patent publication US6426067B1, “Angiogenic inhibitory compounds” (Biomolecular Research Institute, Ltd., priority 1996, dated 2002).

Test system: Chorioallantioic Membrane (CAM)
Format: in vivo
Conditions: 50 μg/cam; BRI2995: surviving eggs
Protocol: The in vivo CAM angiogenesis model, initially described by Folkman (1985) and modified by Maragoudakis et al (1988) was used. Briefly, fresh fertilized eggs were incubated for 4 days at 37° C. when a window was opened on the egg shell exposing the CAM. The window was covered with cellophane tape and the eggs were returned to the incubator until day 9 when the test compounds were applied. The test compounds were placed on sterile plastic discs (10 mm) and were allowed to dry under sterile conditions. Control discs (containing PBS) were placed on the CAM 1 cm away from the discs containing the test material. A sterile solution of cortisone acetate (100 ug/disc, Sigma) was incorporated in all discs in order to prevent an inflammatory response. The loaded and dried discs were inverted and placed on the CAM, the windows were covered and the eggs incubated until day 11 when angiogenesis was assessed.
For morphological evaluation, eggs were treated as above. At day 11 the eggs were flooded with 10% buffered formalin (Janssen Chimica, Geel, Belguim), the plastic discs were removed and the eggs were kept at room temperature for at least 4 hours. At large area around the disc was cut off and placed on a glass slide, and the vascular density index (expressed as number of blood vessels) was measured by the method of Harris-Hooker et al (1983).

CO[C@@H]1[C@H](OC(=O)NC(=O)CCl)CC[C@]2(CO2)[C@H]1[C@@]1(C)O[C@@H]1CC=C(C)C [TNP-470]
inhibition (reduction) of vascular density: 21%±16
